Data from patent publication US20180117000A1, “ENERGY METABOLIC ACTIVATING AGENT FOR MUSCLE CELLS” (ORYZA OIL & FAT CHEMICAL CO., LTD., priority 2015, published 2018).
Entries after “also recorded” stand apart in the source; their conditions may differ.

system: sugar transporter (GLUT4); assay: Evaluation of sugar-transporter (GLUT4) gene-expression promotion: GLUT4 mRNA by RT-PCR in C2C12; format: cell-based, Mouse; conditions: Compounds at 1 μM or 10 μM, C2C12 myoblast cells, cultured one week, GAPDH endogenous control, vs DMSO control, FIG. 2
Description: Mouse-muscle myoblast-cell lines C2C12 (cultured in DMEM FCS10%) were seeded in 24 well plates for determining the mRNA expression (1×10^4 cells/ml) and then were cultured for 24 hours. […] Then, the black-ginger extract and the separated fractions were cultured for one week. For control, the DMSO was added to the culture media in concentration of 0.1% (v/v). After being cultured for one week, the cells were collected, and the RNA was extracted. Regarding the collected RNA, by using RT-PCR (reverse-transcription polymerase chain-reaction), the expressed mRNA amount of the sugar transporter (GLUT4) was identified. At that time, as an endogenous-control, GAPDH (Glyceraldehyde 3-phosphate dehydrogenase) was used.

Question: How did the “mRNA expression of the sugar transporter (GLUT4)” value (shortened to “mRNA expression … (GLUT4)”) turn out when `COc1ccc(-c2oc3cc(OC)cc(O)c3c(=O)c2OC)cc1` [Compound 3, 3,7,4′-Trimethylkaempferol] was run?
Answer: Significant expressed-promotion increases

Question: For `COc1cc(OC)c2c(=O)cc(-c3ccccc3)oc2c1` [Compound 8, 5,7-dimethoxyflavone], which “mRNA expression … (GLUT4)” value is on record?
Answer: Significant expressed-promotion increases

Question: How did the “mRNA expression … (GLUT4)” value turn out when `COc1cc(O)c2c(=O)cc(-c3ccccc3)oc2c1` [Compound 2, Techtochrysin] was run?
Answer: Significant expressed-promotion increases

system: PGC-1α; assay: Evaluation of the PGC-1α-expression promoting effect: PGC-1α mRNA by RT-PCR in C2C12; format: cell-based, Mouse; conditions: Compounds at 1 μM or 10 μM, C2C12 myoblast cells, cultured one week, GAPDH endogenous control, vs DMSO control, FIG. 3
Description: Mouse-muscle myoblast-cell lines C2C12 (cultured in DMEM FCS10%) were seeded in 24 well plates for determining the mRNA expression (1×10^4 cells/ml) and then were cultured for 24 hours. After 24 hours, the black-ginger extract (10 μg/mL) or the separated fractions (Compounds 1-8) were added to the culture media (DMEM FCS 1%) for differentiation induction until the concentration became 1 μM or 10 μM (i.e. until the concentration of the sample dissolved in each DMSO (dimethyl sulfoxide) became 0.1% (v/v) regarding the culture media). Then, the black-ginger extract and the separated fractions were cultured for one week. For control, the DMSO was added to the culture media in concentration of 0.1% (v/v). After being cultured for one week, the cells were collected, and the RNA was extracted. Regarding the collected RNA, by using RT-PCR (reverse-transcription polymerase-chain reaction), the expressed mRNA amount of the PGC-1α was identified. At that time, as an endogenous-control, GAPDH (Glyceraldehyde 3-phosphate dehydrogenase) was used.

Question: For `COc1cc(O)c2c(=O)c(OC)c(-c3ccc(OC)c(OC)c3)oc2c1` [Compound 4, retusine], which “mRNA expression of the PGC-1α” value is on record?
Answer: lower activity

Question: `COc1cc(OC)c2c(=O)cc(-c3ccccc3)oc2c1` [Compound 8, 5,7-dimethoxyflavone] was tested. Which “mRNA expression of the PGC-1α” value did it give?
Answer: Significant increases; also recorded: stronger activity

Question: Which “mRNA expression of the PGC-1α” value does the source give for `COc1cc(O)c2c(=O)cc(-c3ccccc3)oc2c1` [Compound 2, Techtochrysin] here?
Answer: Significant increases; also recorded: stronger activity
